Assay results as given in BindingDB's records for doi:10.1021/jm030272n (Procter & Gamble Pharmaceuticals, 2003).

Assays:
[1] = biological target: DNA gyrase (Escherichia coli); test: Inhibition of Escherichia coli Quinolone resistant gyrase Supercoiling activity
[2] = biological target: DNA gyrase (Escherichia coli); test: Inhibition effect on Escherichia coli Wild Type DNA gyrase Supercoiling activity

IC50 [1]: 71.5 µM
IC50 [2]: 8.8 µM
Compound: N[C@H]1CCCN(c2c(F)cc3c(=O)c(C(=O)O)cn(C4CC4)c3c2F)C1
